Paper PMC12775434, “Ultra-large virtual screening unveils potent agonists of the neuromodulatory orphan receptor GPR139” (Nature Communications, 2025)
Several values for one entry are separate records, joined by “and”; a condition that tells them apart may be missing. Identical values can stand only once.

Tests used:
Type in all cases: cell-based
[1] = biological target: T1, GPR139 (GoA activation) (Homo sapiens, UniProt Q6DWJ6); experiment: BRET G protein activation (dissociation) assay, GoA, HEK293A; conditions: for G protein activation, GoA: individual replicates
T1 construct: expressed in transfected cells; host or cells: HEK293A (transient, Lipofectamine 2000)
T1 sequence (Q6DWJ6 1-353): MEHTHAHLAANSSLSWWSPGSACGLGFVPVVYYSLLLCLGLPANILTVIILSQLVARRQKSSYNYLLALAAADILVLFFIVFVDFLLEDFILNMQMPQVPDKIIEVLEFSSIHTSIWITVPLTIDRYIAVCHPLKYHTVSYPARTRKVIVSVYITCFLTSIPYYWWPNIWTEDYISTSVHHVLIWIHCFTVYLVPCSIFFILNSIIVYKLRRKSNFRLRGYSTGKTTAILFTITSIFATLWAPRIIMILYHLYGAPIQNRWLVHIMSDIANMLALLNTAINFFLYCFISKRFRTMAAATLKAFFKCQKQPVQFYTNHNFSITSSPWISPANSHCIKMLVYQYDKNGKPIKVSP
Experimental: (§1) Primary screening and pharmacological characterization of compounds were performed using a CHO-K1 cell line that stably expresses human GPR139 (GPR139-CHOk1). The GPR139-CHOk1 cell line was kindly provided by H. Lundbeck A/S, Denmark[24]. GPR139-CHOk1 cells were grown in Ham’s F-12 Kaighn’s Modification Medium (ThermoFisher #21127030) supplemented with 10% dialyzed fetal bovine serum (US origin, ThermoFisher #26400044), 100 units/mL Penicillin-Streptomycin (ThermoFisher #15140122), and 1 mg/mL Geneticin (ThermoFisher #11811031). […] M1R-CHOk1 cells were purchased from The Missouri S&T cDNA Resource Center (#CEM100TN00). M1R-CHOk1 cells were grown in Ham’s F12 Medium (ThermoFisher #21765029) supplemented with 10% fetal bovine serum (Brazilian origin, ThermoFisher #10270106), 100 units/mL Penicillin-Streptomycin, and 0.25 mg/mL Geneticin. HEK293A cells transiently transfected with GPR139 were used for additional pharmacological assessment of signaling pathways activated by GPR139. HEK239A cells were generously provided by Dr. Asuka Inoue, Tohoku University, Japan. HEK293A cells were grown in Dulbecco’s Modified Eagle Medium (ThermoFisher #31966047) supplemented with 10% dialyzed fetal bovine serum and 100 units/mL Penicillin-Streptomycin. Cell lines were maintained at 37 °C in humidified incubator equilibrated with 5% CO2.
(§2) The G protein dissociation assay developed by the lab of Kirill A. Martemyanov was used to measure the coupling of multiple G proteins by GPR139[57]. The assay was performed as described previously with minor modifications. HEK293A cells were reverse transfected 20–24 h prior to assay. 50,000 cells were plated in each well of white opaque tissue culture treated 96-well plates (PerkinElmer #6005680) previously coated with poly-D-lysine. Transfection solutions were prepared as described, and 10 µL transfection solution was mixed with 100 µL cells in each well. The cells in each well were transfected with 18.9 ng GPR139, 6.3 ng Venus 1-155 Gγ2, 6.3 ng Venus 159-239 Gβ1, 6.3 ng masGRK3ct-NanoLuc and 12.6 ng Gαi2, 12.6 ng Gαi3, 12.6 ng GαoA, 12.6 ng Gαq or 25.2 ng Gα12 using 375 nL Lipofectamine 2000 Transfection Reagent. Transfections with Gαq and Gα12 contained 6.3 ng DNA of the active subunit S1 of pertussis toxin (PTX-S1). Each transfection was normalized to 150 ng total DNA with pcDNA3.1. The BRET biosensors were a kind gift from the Martemyanov lab. On the day of the experiment the cells were washed with HEPES buffer. Test compounds were diluted in HEPES buffer from DMSO stocks (final DMSO concentration of maximally 0.3%). NanoLuc Luciferase substrate NanoGlo—furimazine (Promega #N1120) was diluted 1000-fold (final) in HEPES buffer. NanoGlo and test compounds were added, and measurements were performed after 10 s for Gi3, 15 s for Gi2 and GoA, 20 s for Gq, and 90 s for G12—the timepoint where maximal signal occurred with each G protein, ensuring proper determination of the potency for the G protein coupling. Simultaneous dual emission was measured at 535 nm and 475 nm on LUMIstar Omega Microplate Reader (BMG Labtech) at room temperature. The BRET ratio of 535 nm/475 nm (Venus/NanoLuc), reflecting the dissociation of the G protein heterotrimer, was used to determine the G protein activation. The basal BRET ratio obtained with buffer condition was subtracted from the absolute BRET ratio at a given test compound concentration, and the responses were normalized to the one obtained with 10 µM JNJ-63533054 for the activation of Gi2.
(§3) Pharmacological data and statistical analyses were performed in GraphPad Prism v9–10 (Graphpad Software Inc., San Diego, CA), which are also specifically described in the figure and table legends. […]

[2] = biological target: T2, GPR139 (G12 activation) (Homo sapiens, UniProt Q6DWJ6); experiment: BRET G protein activation (dissociation) assay, G12, HEK293A; conditions: for G protein activation, G12: individual replicates
T2 construct: expressed in transfected cells; host or cells: HEK293A (transient, Lipofectamine 2000)
T2 sequence (Q6DWJ6 1-353): T1 sequence (Q6DWJ6 1-353)
Experimental: as §1, §2, §3

[3] = biological target: T3, GPR139 (Gq activation) (Homo sapiens, UniProt Q6DWJ6); experiment: BRET G protein activation (dissociation) assay, Gq, HEK293A; conditions: for G protein activation, Gq: individual replicates
T3 construct: expressed in transfected cells; host or cells: HEK293A (transient, Lipofectamine 2000)
T3 sequence (Q6DWJ6 1-353): T1 sequence (Q6DWJ6 1-353)
Experimental: as §1, §2, §3

[4] = biological target: T4, GPR139 (Gi3 activation) (Homo sapiens, UniProt Q6DWJ6); experiment: BRET G protein activation (dissociation) assay, Gi3, HEK293A; conditions: for G protein activation, Gi3: individual replicates
T4 construct: expressed in transfected cells; host or cells: HEK293A (transient, Lipofectamine 2000)
T4 sequence (Q6DWJ6 1-353): T1 sequence (Q6DWJ6 1-353)
Experimental: as §1, §2, §3

[5] = HEK293-A, normalized to JNJ-63533054 (JNJ(S))

Emax [1, 5]: 96 ± 3% | EC50 ([1]; Supplementary Table 6): 63.1 nM | Emax [2, 5]: 54 ± 3% | EC50 ([2]; Supplementary Table 6, read-out: pEC50 G12 (converted)): 12.6 nM | Emax [3, 5]: 35 ± 3% | EC50 ([3]; Supplementary Table 6): 200 nM | Emax [4, 5]: 45 ± 3% | EC50 ([4]; Supplementary Table 6, read-out: pEC50 Gi3 (converted)): 50.1 nM
SMILES: Cc1cscc1-c1nc(CC(=O)N[C@@H](C)c2ccccc2)no1 [1.1(S)]
G protein activation, GoA ([1]; log [compound] M -4.5): 105 % of JNJ-63533054 at Gi2 and 96 % of JNJ-63533054 at Gi2 and 101 % of JNJ-63533054 at Gi2 | G protein activation, GoA ([1]; log [compound] M -5.0): 96 % of JNJ-63533054 at Gi2 and 86 % of JNJ-63533054 at Gi2 and 97 % of JNJ-63533054 at Gi2 | G protein activation, GoA ([1]; log [compound] M -5.5): 94 % of JNJ-63533054 at Gi2 and 83 % of JNJ-63533054 at Gi2 and 96 % of JNJ-63533054 at Gi2 | G protein activation, GoA ([1]; log [compound] M -6.0): 93 % of JNJ-63533054 at Gi2 and 78 % of JNJ-63533054 at Gi2 and 92 % of JNJ-63533054 at Gi2 | G protein activation, GoA ([1]; log [compound] M -6.5): 83 % of JNJ-63533054 at Gi2 and 70 % of JNJ-63533054 at Gi2 and 76 % of JNJ-63533054 at Gi2 | G protein activation, GoA ([1]; log [compound] M -7.0): 62 % of JNJ-63533054 at Gi2 and 52 % of JNJ-63533054 at Gi2 and 61 % of JNJ-63533054 at Gi2 | G protein activation, GoA ([1]; log [compound] M -7.5): 34 % of JNJ-63533054 at Gi2 and 29 % of JNJ-63533054 at Gi2 and 31 % of JNJ-63533054 at Gi2 | G protein activation, GoA ([1]; log [compound] M -8.0): 11 % of JNJ-63533054 at Gi2 and 8 % of JNJ-63533054 at Gi2 and 13 % of JNJ-63533054 at Gi2 | G protein activation, G12 ([2]; log [compound] M -4.5): 60 % of JNJ-63533054 at Gi2 (2×) and 52 % of JNJ-63533054 at Gi2 | G protein activation, G12 ([2]; log [compound] M -5.0): 54 % of JNJ-63533054 at Gi2 and 46 % of JNJ-63533054 at Gi2 and 58 % of JNJ-63533054 at Gi2 | G protein activation, G12 ([2]; log [compound] M -5.5): 51 % of JNJ-63533054 at Gi2 and 44 % of JNJ-63533054 at Gi2 and 56 % of JNJ-63533054 at Gi2 | G protein activation, G12 ([2]; log [compound] M -6.0): 52 % of JNJ-63533054 at Gi2 and 45 % of JNJ-63533054 at Gi2 and 55 % of JNJ-63533054 at Gi2 | G protein activation, G12 ([2]; log [compound] M -6.5): 47 % of JNJ-63533054 at Gi2 and 43 % of JNJ-63533054 at Gi2 and 53 % of JNJ-63533054 at Gi2 | G protein activation, G12 ([2]; log [compound] M -7.0): 46 % of JNJ-63533054 at Gi2 and 39 % of JNJ-63533054 at Gi2 and 52 % of JNJ-63533054 at Gi2 | G protein activation, G12 ([2]; log [compound] M -7.5): 36 % of JNJ-63533054 at Gi2 and 32 % of JNJ-63533054 at Gi2 and 42 % of JNJ-63533054 at Gi2 | G protein activation, G12 ([2]; log [compound] M -8.0): 22 % of JNJ-63533054 at Gi2 and 19 % of JNJ-63533054 at Gi2 and 27 % of JNJ-63533054 at Gi2 | G protein activation, Gq ([3]; log [compound] M -4.5): 35 % of JNJ-63533054 at Gi2 and 45 % of JNJ-63533054 at Gi2 and 30 % of JNJ-63533054 at Gi2 | G protein activation, Gq ([3]; log [compound] M -5.0): 36 % of JNJ-63533054 at Gi2 and 38 % of JNJ-63533054 at Gi2 and 28 % of JNJ-63533054 at Gi2 | G protein activation, Gq ([3]; log [compound] M -5.5): 32 % of JNJ-63533054 at Gi2 and 38 % of JNJ-63533054 at Gi2 and 27 % of JNJ-63533054 at Gi2 | G protein activation, Gq ([3]; log [compound] M -6.0): 30 % of JNJ-63533054 at Gi2 and 34 % of JNJ-63533054 at Gi2 and 26 % of JNJ-63533054 at Gi2 | G protein activation, Gq ([3]; log [compound] M -6.5): 21 % of JNJ-63533054 at Gi2 and 30 % of JNJ-63533054 at Gi2 and 16 % of JNJ-63533054 at Gi2 | G protein activation, Gq ([3]; log [compound] M -7.0): 11 % of JNJ-63533054 at Gi2 and 15 % of JNJ-63533054 at Gi2 and 8 % of JNJ-63533054 at Gi2 | G protein activation, Gq ([3]; log [compound] M -7.5): 2.21 % of JNJ-63533054 at Gi2 and 3.62 % of JNJ-63533054 at Gi2 and 4 % of JNJ-63533054 at Gi2 | G protein activation, Gq ([3]; log [compound] M -8.0): -2.13 % of JNJ-63533054 at Gi2 and -0.806 % of JNJ-63533054 at Gi2 and 3.47 % of JNJ-63533054 at Gi2 | G protein activation, Gi3 ([4]; log [compound] M -4.5): 50 % of JNJ-63533054 at Gi2 and 43 % of JNJ-63533054 at Gi2 and 51 % of JNJ-63533054 at Gi2 | G protein activation, Gi3 ([4]; log [compound] M -5.0): 46 % of JNJ-63533054 at Gi2 and 36 % of JNJ-63533054 at Gi2 and 43 % of JNJ-63533054 at Gi2 | G protein activation, Gi3 ([4]; log [compound] M -5.5): 46 % of JNJ-63533054 at Gi2 and 40 % of JNJ-63533054 at Gi2 and 43 % of JNJ-63533054 at Gi2 | G protein activation, Gi3 ([4]; log [compound] M -6.0): 44 % of JNJ-63533054 at Gi2 and 36 % of JNJ-63533054 at Gi2 and 42 % of JNJ-63533054 at Gi2 | G protein activation, Gi3 ([4]; log [compound] M -6.5): 37 % of JNJ-63533054 at Gi2 (2×) and 36 % of JNJ-63533054 at Gi2 | G protein activation, Gi3 ([4]; log [compound] M -7.0): 31 % of JNJ-63533054 at Gi2 and 26 % of JNJ-63533054 at Gi2 and 28 % of JNJ-63533054 at Gi2 | G protein activation, Gi3 ([4]; log [compound] M -7.5): 18 % of JNJ-63533054 at Gi2 and 14 % of JNJ-63533054 at Gi2 and 21 % of JNJ-63533054 at Gi2 | G protein activation, Gi3 ([4]; log [compound] M -8.0): 11 % of JNJ-63533054 at Gi2 and 5.42 % of JNJ-63533054 at Gi2 and 10 % of JNJ-63533054 at Gi2
